Consider 34 compounds from patent US20230027854A1, “ISOXAZOLE DERIVATIVES TARGETING TACC3 AS ANTICANCER AGENTS” (A2A Pharmaceuticals, inc., priority 2019, published 2023).

SMILES strings stand for the structures. Bounds are passed on as bounds.

The subject of one test is JIMT-1 cells. Put plainly: JIMT-1 cell growth inhibition / cell viability (SRB assay). The format is cell-based. The settings on record: Homo sapiens; JIMT-1 cells; read-out: IC50. On the procedure:
The ability of the compounds of the present disclosure to treat TACC3-mediated cancers, or associated symptoms or complications thereof, was determined using the following procedures. The compounds of the present disclosure were tested for their activity against cell death induction using a JIMT-1 cell line, which was a cell line having high level of TACC3. The concentration of each compound that was required for half-maximal inhibition of cell proliferation was calculated by a GraphPad Prism (GraphPad Software).
In general terms: Sulforhodamine B stains cellular protein and so reports cell mass.
As usually defined, the IC50 is the point on the concentration scale where inhibition reaches its midpoint. For `COc1ccc(-c2cc(Nc3ccnc(N4CCS(=O)(=O)CC4)n3)on2)cc1` [Compound 41, 4-(4-((3-(4-methoxyphenyl)isoxazol-5-yl)amino)pyrimidin-2-yl)thiomorpholine 1,1-dioxide], the half-maximal inhibitory concentration (IC50) was greater than 10 µM. For `CC(C)c1ccc(-c2cc(Nc3ccnc(N4CCOCC4)n3)on2)cc1` [Compound 15, 3-(4-isopropylphenyl)-N-(2-morpholinopyrimidin-4-yl)isoxazol-5-amine], the IC50 was found to be 3.61 µM.

Take `COc1ccc(-c2cc(Nc3ccnc(N4CCSCC4)n3)on2)cc1` [Compound 40, 3-(4-methoxyphenyl)-N-(2-thiomorpholinopyrimidin-4-yl)isoxazol-5-amine]: the IC50 amounted to 0.113 µM.

On to `COc1ccc(-c2cc(Nc3ccnc(N4C5CCC4COC5)n3)on2)cc1` [Compound 34, N-(2-(3-oxa-8-azabicyclo[3.2.1]octan-8-yl)pyrimidin-4-yl)-3-(4-methoxyphenyl)isoxazol-5-amine], for which the IC50 was determined as 0.16 µM. Same read-out and setting: in the case of `COc1ccc(-c2cc(Nc3ccnc(N4CCN(C)CC4)n3)on2)cc1` [Compound 48, 3-(4-methoxyphenyl)-N-(2-(4-methylpiperazin-1-yl)pyrimidin-4-yl)isoxazol-5-amine] it was 1.56 µM; in that of `COc1ccc(-c2cc(Nc3ccnc(N4CC5CCC(C4)O5)n3)on2)cc1` [Compound 35, N-(2-(8-oxa-3-azabicyclo[3.2.1]octan-3-yl)pyrimidin-4-yl)-3-(4-methoxyphenyl)isoxazol-5-amine], 3.09 µM; in that of `CN(C)c1ccc(-c2cc(Nc3ccnc(N4CCOCC4)n3)on2)cc1` [Compound 21, 3-(4-(dimethylamino)phenyl)-N-(2-morpholinopyrimidin-4-yl)isoxazol-5-amine], 0.12 µM. On the same count and under the same terms, the value for `CSc1ccc(-c2cc(Nc3ccnc(N4CCOCC4)n3)on2)cc1` [Compound 20, 3-(4-(methylthio)phenyl)-N-(2-morpholinopyrimidin-4-yl)isoxazol-5-amine] was 0.03 µM; that for `COc1ccc(-c2cc(Nc3nc(N4CCC(F)CC4)ncc3Cl)on2)cc1` [Compound 59, N-(5-chloro-2-(4-fluoropiperidin-1-yl)pyrimidin-4-yl)-3-(4-methoxyphenyl)isoxazol-5-amine] was 0.8 µM. Still for that read-out and setting: the value for `FC(F)Oc1ccc(-c2cc(Nc3ccnc(N4CCOCC4)n3)on2)cc1` [Compound 18, 3-(4-(difluoromethoxy)phenyl)-N-(2-morpholinopyrimidin-4-yl)isoxazol-5-amine] was 4.23 µM. In the case of `Oc1ccc(-c2cc(Nc3ccnc(N4CCOCC4)n3)on2)cc1` [Compound 30, 4-(5-((2-morpholinopyrimidin-4-yl)amino)isoxazol-3-yl)phenol], the IC50 is greater than 10 µM. On the same count and under the same terms, in the case of `c1ccc(-c2cc(Nc3ccnc(N4CCOCC4)n3)on2)cc1` [Compound 8, N-(2-morpholinopyrimidin-4-yl)-3-phenylisoxazol-5-amine] it was greater than 10 µM. Turning to `COc1ccc(-c2cc(N(C)c3ccnc(N4CCOCC4)n3)on2)cc1` [Compound 63, 3-(4-methoxyphenyl)-N-methyl-N-(2-morpholinopyrimidin-4-yl)isoxazol-5-amine], the IC50 was determined as 0.16 µM. The same measure, in the same setting: in the case of `COc1ccc(-c2cc(Nc3ccnc(N4CCCCC4)n3)on2)cc1` [Compound 42, 3-(4-methoxyphenyl)-N-(2-(piperidin-1-yl)pyrimidin-4-yl)isoxazol-5-amine] it was 0.116 µM; in that of `COc1ccc(-c2cc(Nc3ccnc(N4CCCC4)n3)on2)cc1` [Compound 45, 3-(4-methoxyphenyl)-N-(2-(pyrrolidin-1-yl)pyrimidin-4-yl)isoxazol-5-amine], 0.105 µM. Turning to `COc1ccc(-c2cc(Nc3ccnc(N4C[C@@H](C)O[C@@H](C)C4)n3)on2)cc1` [Compound 33, N-(2-((2R,6S)-2,6-dimethylmorpholino)pyrimidin-4-yl)-3-(4-methoxyphenyl)isoxazol-5-amine], the concentration for half-maximal inhibition (IC50) was 0.23 µM. For the compound `COc1ccc(-c2cc(Nc3ccnc(N4CCC(C(=O)O)CC4)n3)on2)cc1` [Compound 51, 1-(4-((3-(4-methoxyphenyl)isoxazol-5-yl)amino)pyrimidin-2-yl)piperidine-4-carboxylic acid], the concentration for half-maximal inhibition (IC50) was greater than 10 µM. Still for that read-out and setting: the value for `COc1ccc(-c2cc(Nc3ccnc(N4CCOCC4)n3)on2)cc1OC` [Compound 24, 3-(3,4-dimethoxyphenyl)-N-(2-morpholinopyrimidin-4-yl)isoxazol-5-amine] was 0.73 µM; that for `COc1ccc(-c2cc(Nc3ccnc(N4CCOCC4)n3)on2)cc1F` [Compound 22, 3-(3-fluoro-4-methoxyphenyl)-N-(2-morpholinopyrimidin-4-yl)isoxazol-5-amine] was 0.013 µM. In the case of `c1ccc(COc2ccc(-c3cc(Nc4ccnc(N5CCOCC5)n4)on3)cc2)cc1` [Compound 32, 3-(4-(benzyloxy)phenyl)-N-(2-morpholinopyrimidin-4-yl)isoxazol-5-amine], the concentration for half-maximal inhibition (IC50) was greater than 10 µM. Still for that read-out and setting: the value for `CCc1ccc(-c2cc(Nc3ccnc(N4CCOCC4)n3)on2)cc1` [Compound 14, 3-(4-ethylphenyl)-N-(2-morpholinopyrimidin-4-yl)isoxazol-5-amine] was 0.259 µM. The same measure, in the same setting: in the case of `COc1ccc(-c2cc(Nc3ccnc(N4CCC(F)CC4)n3)on2)cc1F` [Compound 65, 3-(3-fluoro-4-methoxyphenyl)-N-(2-(4-fluoropiperidin-1-yl)pyrimidin-4-yl)isoxazol-5-amine] it was 0.145 µM; in that of `CC(F)(F)c1ccc(-c2cc(Nc3ccnc(N4CCOCC4)n3)on2)cc1` [Compound 17, 3-(4-(1,1-difluoroethyl)phenyl)-N-(2-morpholinopyrimidin-4-yl)isoxazol-5-amine], greater than 10 µM; in that of `COc1ccc(-c2cc(Nc3ccnc(N4CCC(C)CC4)n3)on2)cc1` [Compound 43, 3-(4-methoxyphenyl)-N-(2-(4-methylpiperidin-1-yl)pyrimidin-4-yl)isoxazol-5-amine], 0.204 µM. In the case of `COc1ccc(-c2cc(Nc3cc(C)nc(N4CCC(F)CC4)n3)on2)cc1` [Compound 61, N-(2-(4-fluoropiperidin-1-yl)-6-methylpyrimidin-4-yl)-3-(4-methoxyphenyl)isoxazol-5-amine], the IC50 is 1 µM. Same read-out and setting: in the case of `COc1ccc(-c2cc(Nc3ccnc(N4CCC(F)(F)CC4)n3)on2)cc1` [Compound 39, N-(2-(4,4-difluoropiperidin-1-yl)pyrimidin-4-yl)-3-(4-methoxyphenyl)isoxazol-5-amine] it was 0.37 µM.

On to `COc1ccc(-c2cc(Nc3ccnc(N4C[C@H]5C[C@@H]4CO5)n3)on2)cc1` [Compound 37, N-(2-((1R,4R)-2-oxa-5-azabicyclo[2.2.1]heptan-5-yl)pyrimidin-4-yl)-3-(4-methoxyphenyl)isoxazol-5-amine], for which the IC50 was 0.48 µM. As to `COc1ccc(-c2cc(Nc3ccnc(N4CCNCC4)n3)on2)cc1` [Compound 49, 3-(4-methoxyphenyl)-N-(2-(piperazin-1-yl)pyrimidin-4-yl)isoxazol-5-amine], the IC50 was greater than 10 µM. The same measure, in the same setting: in the case of `COc1ccc(-c2cc(Nc3ccnc(N4CCOCC4)n3)on2)cc1Cl` [Compound 23, 3-(3-chloro-4-methoxyphenyl)-N-(2-morpholinopyrimidin-4-yl)isoxazol-5-amine] it was 0.48 µM; in that of `COc1ccc(-c2cc(Nc3ccnc(N4CCC(CCO)CC4)n3)on2)cc1` [Compound 46, 2-(1-(4-((3-(4-methoxyphenyl)isoxazol-5-yl)amino)pyrimidin-2-yl)piperidin-4-yl)ethan-1-ol], 3.97 µM.

As for `COc1ccc(-c2cc(Nc3ccnc(N4C[C@@H]5C[C@H]4CO5)n3)on2)cc1` [Compound 36, N-(2-((1S,4S)-2-oxa-5-azabicyclo[2.2.1]heptan-5-yl)pyrimidin-4-yl)-3-(4-methoxyphenyl)isoxazol-5-amine], the IC50 is 2.02 µM. Regarding `CCOC(=O)C1CCN(c2nccc(Nc3cc(-c4ccc(OC)cc4)no3)n2)CC1` [Compound 50, Ethyl 1-(4-((3-(4-methoxyphenyl)isoxazol-5-yl)amino)pyrimidin-2-yl)piperidine-4-carboxylate], the 50% inhibitory concentration (IC50) was greater than 10 µM. On the same count and under the same terms, the value for `COc1ccc(-c2cc(Nc3ccnc(N4CCCC4)n3)on2)cc1F` [Compound 67, 3-(3-fluoro-4-methoxyphenyl)-N-(2-(pyrrolidin-1-yl)pyrimidin-4-yl)isoxazol-5-amine] was 0.049 µM.

Another test deals with JIMT-1 cells. The experiment in a line: Western blot of mitotic arrest, DNA damage and apoptosis markers. The format is cell-based, human. To be noted: 24 hours, dose response. The method, then:
JIMT-1, MDA-MB-436, MDA-MB-157 and BT-474 T-DM1R cell lines were tested with respect to their response to these three drugs. […] Although higher KHS101 doses was included, which were used by others (Campo & Breuer, 2018), an induction of these markers was only observed at very high doses.
On the technique in general: A western blot detects proteins with antibodies after separation by electrophoresis.
As for `CC(C)CNc1ccnc(NCc2csc(-c3ccccc3)n2)n1` [KHS101, reference compound], the “induction of mitotic arrest, DNA damage and apoptosis markers” value is recorded as “considerably higher doses”.
